Laboratory results published in patent US20230250127A1, “MODIFIED mRNA 5'-CAP ANALOGS” (Nanjing GeneLeap Biotechnology Co., Ltd., priority 2021, published 2023).
“Also recorded” adds a separate entry of the source.

What was measured:
C57BL/6 mice [1] = assay: In vivo Fluc expression of capped mRNA-LNPs by in vivo imaging system (IVIS); conditions: for expression levels of Fluc protein in liver and muscle (injection site) tissues: Experiment 2, by in vivo imaging system and by ex vivo Luciferase assay, vs Cleancap AG (FIG. 13); for in vivo expression levels of Fluc protein (in vivo imaging system): vs Cleancap AG-mRNA; for Fluc expression in vivo, summary of FIGS. 10-13: mice, intramuscular mRNA-LNPs, compared to Cleancap AG
Description: (§1) Female C57BL/6 mice 7-8 weeks of age were randomly allocated to experimental groups, 30 mice per group. For each group, 6 experimental conditions were set up: 2 mRNA doses (0.01, 0.1 mg/kg) and 3 time points 6 h, 24 h, 48 h (5 mice/dose/time point). A single intramuscular injection of mRNA-loaded LNPs was performed (injection volume 40 µl). At 6 h, 24 h and 48 h post-injection, 5 animals/dose in each group were taken for in vivo tissue and organ imaging. The animals were shaved and intraperitoneally injected with 200 µL of a d-luciferin solution (15 mg/mL in DPBS) D-luciferin and anesthetized 8 min later using isoflurane (5% induction, 2% maintenance in pure oxygen). The emitted light was measured by in vivo imaging system (IVIS) exactly 12 min after d-luciferin injection. Whole body supine and lateral position imaging was carried out.
(§2) After Whole body imaging, the animals were euthanized, and the leg muscles (injection site) were harvested in Experiment 1; muscles and livers were harvested in Experiment 2. The emitted light by the tissues/organs was measured by IVIS in less than 25 min after d-luciferin injection.

C57BL/6 mice [2] = assay: Ex vivo Luciferase assay of tissue homogenates after mRNA-LNP injection; assay type: in vivo; conditions: Experiment 1, low and high dose regimens, different time points; vs Cleancap AG-mRNA
Description: as §1, §2
Next, tissue lysates were prepared by homogenization and Glo Lysis Buffer 1X (Abcam cat # ab6789) treatment. The lysates were centrifuged at 4° C. for 15 min at 10000 g, and the supernatants were used for total protein quantification and luciferase activity assessment. […]

HeLa cells = assay: Fluc mRNA carrying 5′-cap analogs, translation in HeLa cells (luciferase luminescence); assay type: cell-based; conditions: for Fluc expression in vitro, summary of FIGS. 7-9: HeLa cells, compared to the control Cleancap AG; for expression levels of Fluc protein by mRNAs containing different 5′caps: HeLa
Description: The novel 5′ -caps synthesized were incorporated into Firefly luciferase (Fluc) mRNA using pGL-T7-AG-nUTR002-Fluc-HBB3UTR-30+70A-BpiI (Kana-AGG-BpiI Plasmid Size: 4856bp). Then, the dose responses of the new cap analogs were compared to commercially available Cap analog from Trilink m7G(5′)ppp(5′)(2′OMeA)pG (cat no. N-7113).
Briefly, 1 µg GLuc (AGG plasmid) template per reaction was transcribed in vitro using a High Yield T7 mRNA synthesis kit (NEB, E2040S). Cap analogs were added by co-transcription. Transcription was carried out for 2 hours, followed by DNase I treatment for 15 min. Ratio of NTP to Cap analogs, 10:4 (10 mM NTP each, 4 mM cap).
Expected mRNA length: 2008 nt. Then the small scale IVT mRNAs were purified using DNA Selection Magnetic beads (Yeasen,12601ES56), Large scale IVT mRNAs were purified using POROS™ Oligo (dT)25 (Thermofisher, A47383) and Ultrafiltration use Amicon® Ultra-15(Merk, UFC910024), the RNA was quantitated using Nanodrop, and 500 ng of each mRNA was run on agarose E-Gel, mRNAs were run on a 2100 bioanalyzer or CE (PA800) for checking mRNA integrity, HPLC for Purity, DNAzyme-PAGE for Capping efficiency and polyA quality. Large scale mRNA were subjected to more QC (Capping/polyA tail-LC-MS, Template DNA residual-qPCR, dsRNA-Elisa, pH).
Novel 5 ′-cap structures that were synthesized were incorporated into Firefly luciferase (Fluc) mRNA via IVT as described above and then assessed for translation efficacy in HeLa cells following transfection. Briefly, HeLa cells were seeded in a 96-well plate (20000cells/0.1 ml/well). The next day (approx. ∼80-90% confluent), the cells were transfected with 25, 50, or 100 ng/well of Fluc-mRNA samples using 2 µl/ml of Lipofectamine MessengerMax (Thermo Scientific, cat#LMRNA015) or in-house formulated lipid-nanoparticles (LNPs). The cells were incubated for another 24 h. To monitor the functional (translation) activity of Fluc mRNAs into which different 5′cap analogs have been incorporated, the Fluc protein expression was evaluated by adding 60 µl Bio Lite Luciferase Assay System (Vazyme, cat # DD1201-02) into each well, incubating the plates at room temperature for 10 min, and measuring the luminescence using a multimode plate reader luminometer. All wells were assayed in triplicates. Statistical analysis was performed using two-way ANOVA followed by uncorrected Fisher’s LSD.

C3 tumors = assay: C3 Tumor Model, capped HPV E6/E7 mRNA; assay type: in vivo; conditions: GL2288 mRNA, mid dose (0.05 mg/Kg), intramuscular Day 0; vs CC
Description: As soon as the C3 tumors reached 100 mm^3, our HPV E6/E7 mRNA sequence (GL2281) (wherein the sequence encoding HPV E6-E7 is SEQ ID NO:2), capped with either CleanCap, GL-Cap5 or GL-Cap1, was administered intramuscularly at 10 µg per dose, with the first dose on Day 0 and second dose on Day 10. The PBS and 10 µg of CleanCap-capped Luciferase mRNA (FF luciferase) were used for comparison.
As soon as the C3 tumors reached 100 mm3, our HPV E6/E7 mRNA sequence (GL2288) (wherein the sequence encoding HPV E6-E7 is SEQ ID NO:1), capped with either CleanCap (CC), or GL-Cap7, was administered intramuscularly at different doses at Day 0. The CleanCap-capped Luciferase mRNA (FF Luciferase) was used for comparison.

[3] = Experiment 2, single intramuscular dose 0.1 mg/kg, 6 h after injection

Compound | expression levels of Fluc protein in liver and muscle (injection site) tissues (C57BL/6 mice [1]) | in vivo expression levels of Fluc protein (in vivo imaging system) (C57BL/6 mice [1]; [3]) | expression levels of Fluc protein in muscle tissue homogenates (ex vivo Luciferase assay) (C57BL/6 mice [2]) | Fluc expression in vitro, summary of FIGS. 7-9 (HeLa cells) | expression levels of Fluc protein by mRNAs containing different 5′caps (HeLa cells; 24 h, in-house LNP formulation, high and medium doses (FIG. 7B)) | expression levels of Fluc protein by mRNAs containing different 5′caps (HeLa cells; 24 h post-transfection, Lipofectamine MessengerMax, different tested doses, vs Cleancap AG (FIG. 7A)) | in vivo expression levels of Fluc protein (in vivo imaging system) (C57BL/6 mice [1]; Experiment 1, single intramuscular dose of mRNA-LNPs, low and high dose regimens, 6 h, 24 h, 48 h) | Fluc expression in vivo, summary of FIGS. 10-13 (C57BL/6 mice [1]) | anti-tumor efficacy (C3 tumors) | expression levels of Fluc protein by mRNAs containing different 5′caps (HeLa cells; 24 h, in-house LNP formulation, low doses (FIG. 7B))
C[n+]1cn([C@@H]2O[C@H](COP(=O)([O-])OP(=O)(O)OP(=O)(O)OC[C@]34COC(C3OP(=O)(O)OC[C@]35COC(C3OP(=O)(O)OC[C@H]3O[C@@H](n6cnc7c(=O)[nH]c(N)nc76)C(O)C3O)[C@H](n3cnc6c(N)ncnc63)O5)[C@H](n3cnc5c(N)ncnc53)O4)C(O)C2O)c2nc(N)[nH]c(=O)c21 (some centres unmarked) [GL-Cap1, 7mGppp(locked)Ap(locked)ApG] | better | slightly higher than in the Cleancap AG group, but without statistical significance | – | – | – | – | – | – | – | –
C[n+]1cn([C@@H]2O[C@H](COP(=O)([O-])OP(=O)(O)OP(=O)(O)OC[C@]34COC(C3OP(=O)(O)OC[C@H]3O[C@@H](n5cnc6c(=O)[nH]c(N)nc65)C(O)C3O)[C@H](n3cnc5c(N)ncnc53)O4)C(O)C2O)c2nc(N)[nH]c(=O)c21 (some centres unmarked) [GL-Cap5, 7mGppp(locked)ApG] | comparable | significantly higher Fluc expression levels | higher than with Cleancap AG-mRNA | stronger expression | significantly higher than all the other tested caps | significantly higher expression level at different tested doses | significantly higher Fluc expression levels; also recorded: the strongest expression level among the tested caps | significantly stronger expression | – | –
C[n+]1cn([C@@H]2O[C@H](COP(=O)([O-])OP(=O)(O)OP(=O)(O)OC[C@]34COC(C3OP(=O)(O)OC[C@H]3O[C@@H](n5cnc6c(=O)[nH]c(N)nc65)C(O)C3O)[C@H](n3cnc5c(N)ncnc53)O4)C(O)C2F)c2nc(N)[nH]c(=O)c21 (some centres unmarked) [GL-Cap7, 7m-2′F-Gppp(locked)ApG] | better; also recorded: highest expression levels | significantly higher Fluc expression levels | – | stronger expression | – | – | – | significantly stronger expression | higher anti-tumor efficacy than CC | –
COCCOC1C(O)[C@@H](COP(=O)([O-])OP(=O)(O)OP(=O)(O)OC[C@]23COC(C2OP(=O)(O)OC[C@H]2O[C@@H](n4cnc5c(=O)[nH]c(N)nc54)C(O)C2O)[C@H](n2cnc4c(N)ncnc42)O3)O[C@H]1n1c[n+](C)c2c(=O)[nH]c(N)nc21 (some centres unmarked) [GL-Cap8, 7m-2-′MOE-Gppp(locked)ApG] | better; also recorded: highest expression levels | – | – | – | – | – | – | – | – | stronger expression than Cleancap AG (Trilink)
